# According to publication PMC7450492 (Molecular cancer therapeutics, 2020):
# Entries after “also recorded” stand apart in the source; their conditions may differ.
# Tests used:
# LLC tumors [1] = assay: LLC tumors in Syk^MC-KO mice; assay type: in vivo, mouse
# LLC tumors [2] = assay: LLC syngeneic tumor in WT mice; assay type: in vivo; conditions: for infiltration of CD8+ T cells in LLC tumors: treated LLC tumors
# LLC cells = assay: viability of LLC cells; assay type: cell-based, mouse
# T cells = assay: T cell proliferation ex vivo; assay type: cell-based, mouse
# B16-OVA tumor = B16-OVA tumor in C57BL/6 mice; assay type: in vivo, mouse
# LLC tumor = LLC tumor with macrophage depletion by anti-CSF1R; assay type: in vivo, mouse; conditions: macrophage depleted mice
# Syk = Syk (Homo sapiens, UniProt P43405); assay: cell free enzymatic inhibition of Syk; assay type: biochemical; conditions: read-out: Syk inhibitory activity IC50; cell free system
# [3] = test system: PI3K isoforms p110α, p110β, p110γ and p110δ; assay: cell free enzymatic inhibition of PI3K isoforms; assay type: biochemical; conditions: in vitro
# p-AKT = p-AKT blockade; assay type: cell-based; conditions: 10 µM conc.
# [4] = PK in mice, i.v. and oral; assay type: in vivo, mouse; conditions: prototype formulation, preliminary
# solubility in water = assay type: physicochemical
# metabolic stability = assay type: in vitro ADME
# CT26 tumor = CT26 tumor in NSG or Balb/c mice; assay type: in vivo, mouse
# [5] = test system: immunosuppressive gene expression in MΦ; assay: immunosuppressive MΦ polarization, gene expression; assay type: cell-based; conditions: very low dose, compared to IPI-549 or R488 alone
structure (smiles),measurement,setting,value
C[C@H](NC(=O)c1c(N)nn2cccnc12)c1cc2cccc(C#Cc3cnn(C)c3)c2c(=O)n1-c1ccccc1 [IPI549],LLC tumor growth in Syk^MC-KO mice,LLC tumors [1],significantly decreased
"COc1cc(Nc2ncc(F)c(Nc3ccc4c(n3)N(COP(=O)(O)O)C(=O)C(C)(C)O4)n2)cc(OC)c1OC [R788, Fostamatinib]",tumor growth and metastasis,"LLC tumors [2]; LLC, WT mice, 40 mg/kg R788 orally, vs vehicle",significantly suppressed
same,infiltration of CD8+ T cells in LLC tumors,LLC tumors [2],increased infiltration
same,viability of LLC cells,LLC cells,no effect
same,T cell proliferation,T cells,no effect
same,OVA specific CD8+ T cells in tumor draining lymph nodes,"B16-OVA tumor; B16-OVA, H-2K^b SIINFEKL tetramers",increased
same,B16-OVA tumor growth,"B16-OVA tumor; C57BL/6 mice, R788 40 mg/kg, anti-PDL1 200µg, 40 mg/kg",significantly blocked tumor growth; also recorded: substantially inhibited
same,LLC tumor growth in Syk^MC-KO mice,LLC tumors [1],didn’t show additive reduction
same,"LLC tumor growth, combination with anti-CSF1R (CD115) antibody",LLC tumor,no additive effects
Cc1nn(-c2ccnc(Nc3ccc(-c4csc5c(=O)cc(N6CCOCC6)oc45)cc3)n2)cc1CN1CCC1 [SRX3207],IC50,Syk,30 nM
same,PI3K inhibitory potency,[3],acceptable PI3K inhibitory properties
same,p-AKT blockade,p-AKT,able to block
same,half-life,[4]; 5mg/kg IV and 15 mg/kg PO,about 5 hours
same,bioavailability,[4]; oral 15 mg/kg PO vs 5mg/kg IV,around 2%
same,solubility in water,solubility in water,43 µM
same,CLint,metabolic stability,74 µL/min/mg protein
same,toxicity in tumor-bearing mice,LLC tumors [2]; 10 mg/kg dose,without toxicity
same,LLC tumor growth and survival,"LLC tumors [2]; 10 mg/kg oral, WT mice, compared to IPI549 and R788 at similar doses",blocked tumor growth and increased survival effectively
same,infiltration of CD8+ T cells in LLC tumors,LLC tumors [2],increased infiltration
same,T cell proliferation,T cells,didn’t affect
same,CT26 tumor growth in Balb/c mice,CT26 tumor; Balb/c mice,blocked tumor growth
same,CT26 tumor growth in NSG mice,CT26 tumor; NSG mice,didn’t block
same,LLC tumor growth in Syk^MC-KO mice,LLC tumors [1],significantly decreased
same,immunosuppressive gene expression,[5],potently blocks
same,"LLC tumor growth, combination with anti-CSF1R (CD115) antibody",LLC tumor,no additive effects
